The test has as its system UMSCC22A cells. Briefly: Cell death after PDT by propidium iodide fluorometry. In kind it is cell-based. The following applies: after irradiation; after 5 h of PDT. How it is done: After exposure to red light, cells were incubated for various periods of time prior to analysis.
Cell death was assessed by propidium iodide (PI) fluorometry using a multi-well fluorescence plate reader, as previously described. Human head and neck cancer cells (UMSCC22A) were plated on 96-well plates (15,000 cells/well) in Dulbecco's Modified Eagle's Medium (DMEM) (Gibco) supplemented with 10% fetal bovine serum (FBS) and penicillin/streptomycin (complete culture medium) in a humidified 37° C. incubator at 5% CO2/95% air. […] Before exposure to light, cells were changed to fresh medium supplemented with PI (30 μM) and Insulin-Transferrin-Selenium-X (ITX) reagent [insulin (10 μg/ml), transferrin (5.5 μg/m), selenium (6.7 ng/ml), ethanolamine (0.2 mg/ml)] (Gibco) but omitting FBS. PI fluorescence was measured at frequent intervals using 530 nm excitation (25 nm band pass) and 620 nm emission (40 nm band pass) filters. Between measurements, microtiter plates were placed in a 37° C. incubator. At the end of the experiment, digitonin (200 μM) was added to each well to permeabilize all cells and label all nuclei with PI. Cell viability determined by PI fluorometry is essentially the same as cell viability determined by trypan blue exclusion.

On to Silicon phthalocyanine [Pc 4], for which the cell killing came to 35%.

The record behind these values is US9283281B2, “Preparation of triple responsive nanogel system and its application” (University of South Carolina, priority 2013, dated 2016).
